Test results: ChEMBL document CHEMBL3813639, “The Halicylindramides, Farnesoid X Receptor Antagonizing Depsipeptides from a Petrosia sp. Marine Sponge Collected in Korea” (J Nat Prod, 2016)
Activity calls are given as the source filed them. No cut-off for these calls is given here.

How the values were obtained:
MCF7 = assay: Antiproliferative activity against human MCF7 cells after 20 hrs by microculture tetrazolium assay; format: functional; conditions: MCF7, 20 h, read-out: ED50 (the source's name)
HepG2 = assay: cells; conditions: Homo sapiens, HepG2, 24 h
Description: Cytotoxicity against human HepG2 cells after 24 hrs by MTT assay

[1] = target: T1, Bile acid receptor (Homo sapiens) (UniProt Q96RI1); assay: Antagonist activity at human FXR expressed in CV-1 cells assessed as inhibition of CDCA-induced receptor transactivation upto 100 uM after 24 hrs by luciferase reporter gene assay; format: cell-based
T1 sequence (whole entry): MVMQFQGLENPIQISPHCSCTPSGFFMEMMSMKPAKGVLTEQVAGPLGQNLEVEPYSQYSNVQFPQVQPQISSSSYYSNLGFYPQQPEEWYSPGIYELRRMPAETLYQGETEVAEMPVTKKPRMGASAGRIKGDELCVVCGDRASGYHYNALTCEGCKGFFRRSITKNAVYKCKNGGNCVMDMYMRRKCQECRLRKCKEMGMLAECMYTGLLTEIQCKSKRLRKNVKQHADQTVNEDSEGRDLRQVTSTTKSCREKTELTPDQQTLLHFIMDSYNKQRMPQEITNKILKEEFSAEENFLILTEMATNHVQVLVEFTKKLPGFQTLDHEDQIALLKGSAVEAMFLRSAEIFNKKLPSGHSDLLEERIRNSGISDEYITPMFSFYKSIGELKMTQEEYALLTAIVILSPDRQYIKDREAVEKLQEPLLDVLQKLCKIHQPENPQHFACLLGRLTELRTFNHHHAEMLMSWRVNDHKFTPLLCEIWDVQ

Bile acid receptor = target: T2, Bile acid receptor (Homo sapiens, UniProt Q96RI1); assay: Antagonist activity at human FXR expressed in CV-1 cells assessed as inhibition of CDCA-induced receptor transactivation after 24 hrs by luciferase reporter gene assay; format: cell-based
T2 sequence (Q96RI1 whole entry): T1 sequence (whole entry)

[2] = test system: Human immunodeficiency virus 1; assay: Antiviral activity against HIV1 3B infected in human PBMC cells assessed as reduction in reverse transcriptase activity after 5 days by XTT assay; format: functional, organism-based; conditions: Human immunodeficiency virus 1, 3B, 120 h
Mus musculus = assay: Antiinflammatory activity in Swiss mouse assessed as inhibition of carrageenan-induced paw edema at 0.3 mg/kg, ip by hydroplethismometer; format: functional
[3] = test system: Human immunodeficiency virus 1; assay: Antiviral activity against HIV1 RF assessed as inhibition of viral infection in human T-lymphoblastoid cells; format: functional, organism-based; conditions: Human immunodeficiency virus 1, RF

SMILES | IC50 (HepG2) [µM] | IC50 (Bile acid receptor) [µM] | other results
CN[C@H](C(=O)N[C@H](C(=O)N(C)[C@H](/C=C(\C)C(=O)O)C(C)C)C(C)(C)C)C(C)(C)c1cn(C)c2ccccc12 [HEMIASTERLIN] | – | – | EC50 (MCF7): 0.0005 µM
CC(C)[C@@H](NC(=O)[C@H]1CCCN1C(=O)[C@H](Cc1ccc(Br)cc1)NC(=O)[C@@H](C)NC=O)C(=O)N[C@H](C(=O)N[C@H](C[C@]1(O)C(=O)Nc2ccccc21)C(=O)N[C@@H](CCCNC(=N)N)C(=O)N[C@H](CS(=O)(=O)O)C(=O)N[C@H]1C(=O)N(C)[C@H](CCC(N)=O)C(=O)N[C@@H](Cc2ccccc2)C(=O)N[C@H]([C@H](C)O)C(=O)N[C@H](CC(N)=O)C(=O)N(C)CC(=O)O[C@@H]1C)C(C)(C)C | 100 | – | inhibition [1]: inactive
CC(C)[C@@H](NC(=O)[C@H]1CCCN1C(=O)[C@H](Cc1ccccc1)NC(=O)[C@@H](C)NC=O)C(=O)N[C@H](C(=O)N[C@H](Cc1c[nH]c2ccccc12)C(=O)N[C@@H](CCCNC(=N)N)C(=O)N[C@H](CS(=O)(=O)O)C(=O)N[C@H]1C(=O)N(C)[C@H](CCC(N)=O)C(=O)N[C@@H](Cc2ccccc2)C(=O)N[C@H]([C@H](C)O)C(=O)N[C@H](CC(N)=O)C(=O)N(C)CC(=O)O[C@@H]1C)C(C)(C)C | 100 | 6 | –
COc1cccc2c1C(=O)c1c(O)c3c(c(O)c1C2=O)C[C@@](O)(C(=O)CO)C[C@@H]3O[C@H]1C[C@H](N)[C@H](O)[C@H](C)O1 [DOXORUBICIN] | 2.1 | – | –
CC[C@@H](C)C[C@@H](C)[C@@H](O)[C@@H](C)C(=O)N[C@H](CCCN)C(=O)N[C@@H](CCC(=O)O)[C@@H](O)[C@@H](O)C(=O)N[C@H](C(=O)N[C@H]1C(=O)N[C@H](CO)C(=O)N[C@H](CCCN)C(=O)N[C@@H](CC(C)C)C(=O)N(C)[C@@H](CCC(N)=O)C(=O)N[C@@H]([C@@H](C)OC)C(=O)N[C@H](CC(=O)O)C(=O)N2CCCC[C@H]2C(=O)O[C@@H]1[C@H](C)C(C)C)[C@@H](C)[C@@H](C)C(N)=O | – | – | IC50 [2]: 0.075 µM
CC(C)[C@@H](NC(=O)[C@@H]1CCCN1C(=O)[C@H](Cc1ccc(Br)cc1)NC(=O)[C@@H](C)NC=O)C(=O)N[C@H](C(=O)N[C@H](Cc1c[nH]c2ccccc12)C(=O)N[C@@H](CCCNC(=N)N)C(=O)N[C@H](CS(=O)(=O)O)C(=O)N[C@@H]1C(=O)N(C)[C@@H](CCC(N)=O)C(=O)N[C@H](Cc2ccccc2)C(=O)N[C@@H]([C@@H](C)O)C(=O)N[C@@H](CC(N)=O)C(=O)N(C)CC(=O)O[C@@H]1C)C(C)(C)C | 100 | 5 | –
CC(C)[C@H](NC(=O)[C@H](NC(=O)[C@@H]1CCCN1C(=O)[C@H](Cc1ccc(Br)cc1)NC(=O)[C@@H](C)NC=O)C(C)C)C(=O)N[C@H](Cc1c[nH]c2ccccc12)C(=O)N[C@@H](CCCNC(=N)N)C(=O)N[C@H](CS(=O)(=O)O)C(=O)N[C@@H]1C(=O)N(C)[C@@H](CCC(N)=O)C(=O)N[C@H](Cc2ccccc2)C(=O)N[C@@H]([C@@H](C)O)C(=O)N[C@@H](CC(N)=O)C(=O)N(C)CC(=O)O[C@@H]1C | 20 | 0.5 | –
CC(C)[C@@H](NC(=O)[C@H]1CCCN1C(=O)[C@H](Cc1ccc(Br)cc1)NC(=O)[C@@H](C)NC=O)C(=O)N[C@H](C(=O)N[C@H](C[C@@]1(O)C(=O)Nc2ccccc21)C(=O)N[C@@H](CCCNC(=N)N)C(=O)N[C@H](CS(=O)(=O)O)C(=O)N[C@H]1C(=O)N(C)[C@H](CCC(N)=O)C(=O)N[C@@H](Cc2ccccc2)C(=O)N[C@H]([C@H](C)O)C(=O)N[C@H](CC(N)=O)C(=O)N(C)CC(=O)O[C@@H]1C)C(C)(C)C | 100 | – | inhibition [1]: inactive
CCC[C@@H](CC[C@@H](C)[C@@H]1OC(=O)[C@H](C)NC(=O)[C@H]([C@@H](C)CCO)N(C)C(=O)[C@]2(C)CSC(=N2)[C@H](C)NC(=O)C1(C)C)OC | – | – | inhibition in vivo at 0.3 mg/kg (Mus musculus): 60%
CCC(C)/C=C(C)/C=C\C(O)C(C)(O)C(=O)NCC(=O)N[C@@H](C(=O)N[C@H](C(=O)N[C@H](C(=O)N[C@H]1C(=O)N[C@H](COC)C(=O)NCC(=O)N[C@@H](C)CN(C)[C@H]([C@@H](C)O)CNC(C(OC)c2ccc(O)cc2)C(=O)N2CCCC[C@H]2C(=O)O[C@@H]1C(C)C)[C@@H](C)[C@@H](C)C(N)=O)[C@H](C)N)[C@@H](C)O (stereo not given in full) | – | – | EC50 [3]: 0.0026 µM
